# Reference: patent US9550811B2, “Peptide scaffold design” (BIONOR IMMUNO AS, priority 2010, dated 2017)
# Where two headings read alike, the source gives them in different places. Where no end group is shown, it is not given here. [ ]: non-standard residue; d: D form. Nle = CCCC[C@H](N)C(=O)O
# Assays:
# HLA-A1 = experiment: REVEAL binding assay; details: score as percentage of the signal generated by the positive control peptide
# HLA-A24 = experiment: REVEAL binding assay; details: score as percentage of the signal generated by the positive control peptide
# Source text: (§5) The REVEAL™ binding assay determined the ability of each candidate peptide to bind to one or more MHC class I alleles and stabilizing the MHC-peptide complex. […] Detection is based on the presence or absence of the native conformation of the MHC-peptide complex. Each peptide is given a score relative to the positive control peptide, which is a known T cell epitope.
# HLA-A29 = experiment: REVEAL binding assay; details: score as percentage of the signal generated by the positive control peptide
# HLA-B8 = experiment: REVEAL binding assay; details: score as percentage of the signal generated by the positive control peptide
# HLA-B14 = experiment: REVEAL binding assay; details: score as percentage of the signal generated by the positive control peptide
# Source text: as §5
# HLA-B15 = experiment: REVEAL binding assay; details: score as percentage of the signal generated by the positive control peptide
# HLA-A11 = HLA-A11 (Homo sapiens, UniProt P04439, A114D/F33Y/S129P); experiment: REVEAL binding assay; details: score as percentage of the signal generated by the positive control peptide
# Protocol: (§1) Binding properties to HLA for the ninemers listed in table 6 were tested for the following HLA-classes:
# (§2) HLA-A1, HLA-A2, HLA-A3, HLA-A11, HLA-A24, HLA-A29, HLA-B7, HLA-B8, HLA-B14, HLA-B15, HLA-B27, HLA-B35, HLA-B40.
# (§3) The peptides were synthesized as a Prospector PEPscreen®: Custom Peptide Library. […] Quality control by MALDI-TOF Mass Spectrometry was carried out on 100% of samples.
# (§4) The REVEAL™ binding assay determined the ability of each candidate peptide to bind to one or more MHC class I alleles and stabilizing the MHC-peptide complex. By comparing the binding to that of high and intermediate affinity T cell epitopes, the most likely immunogenic peptides in a protein sequence can be identified. Detection is based on the presence or absence of the native conformation of the MHC-peptide complex. Each peptide is given a score relative to the positive control peptide, which is a known T cell epitope.
# HLA-A2 = HLA-A2 (Homo sapiens, UniProt P04439, D140Y/D185E/D98H/E176V/E277Q/G131W/G231S/I119V/I121R/I166T/I218V/N151K/N90K/P208A/P217A/Q86G/Q94H/R138H/R169H); experiment: REVEAL binding assay; details: score as percentage of the signal generated by the positive control peptide
# Protocol: as §1, §2, §3, §4
# HLA-A3 = HLA-A3 (Homo sapiens, UniProt P04439); experiment: REVEAL binding assay; details: score as percentage of the signal generated by the positive control peptide
# Chain of HLA-A3 (P04439 25-299): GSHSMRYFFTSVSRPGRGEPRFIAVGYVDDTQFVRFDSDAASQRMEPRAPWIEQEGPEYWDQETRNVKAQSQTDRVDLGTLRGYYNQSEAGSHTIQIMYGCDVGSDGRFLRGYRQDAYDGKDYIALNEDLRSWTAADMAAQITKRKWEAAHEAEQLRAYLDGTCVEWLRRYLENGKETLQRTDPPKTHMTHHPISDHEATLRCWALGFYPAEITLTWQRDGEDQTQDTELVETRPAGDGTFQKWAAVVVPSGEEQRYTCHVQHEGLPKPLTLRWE
# Chain of HLA-A3 (P61769 21-119, further chain): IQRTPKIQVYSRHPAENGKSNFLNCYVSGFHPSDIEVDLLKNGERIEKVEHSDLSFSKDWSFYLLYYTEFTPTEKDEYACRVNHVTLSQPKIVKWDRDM
# Protocol: as §1, §2, §3, §4
# HLA-B27 = HLA-B27 (Homo sapiens, UniProt P01889, D138H/D201E/E176V/E204Q/G107R/H137Y/K202T/N104T/N87E/Q56L/Q94K/R106L/R155S/R180L/S101D/S121N/S48T/Y140D/Y33H/Y91C); experiment: REVEAL binding assay; details: score as percentage of the signal generated by the positive control peptide
# Protocol: as §1, §2, §3, §4
# HLA-B7 = HLA-B7 (Homo sapiens, UniProt P01889); experiment: REVEAL binding assay; details: score as percentage of the signal generated by the positive control peptide
# Chain of HLA-B7 (P61769 21-119): as the sequence (P61769 21-119, further chain) above
# Chain of HLA-B7 (P01889 25-299): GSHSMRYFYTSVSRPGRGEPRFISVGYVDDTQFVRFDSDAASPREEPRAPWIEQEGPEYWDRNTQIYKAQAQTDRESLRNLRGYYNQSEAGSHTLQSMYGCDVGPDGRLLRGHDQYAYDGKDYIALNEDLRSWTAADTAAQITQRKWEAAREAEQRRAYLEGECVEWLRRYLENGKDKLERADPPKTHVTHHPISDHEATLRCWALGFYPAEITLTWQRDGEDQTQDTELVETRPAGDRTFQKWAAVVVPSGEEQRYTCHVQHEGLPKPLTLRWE
# Protocol: as §1, §2, §3, §4
# HLA-B35 = experiment: REVEAL binding assay; details: score as percentage of the signal generated by the positive control peptide
# HLA-B40 = experiment: REVEAL binding assay; details: score as percentage of the signal generated by the positive control peptide
# Protocol: as §1, §2
# The peptides were synthesized as a Prospector PEPscreen®: Custom Peptide Library. Peptides 8-15 amino acids in length were synthesized in 0.5-2 mg quantities with high average purity. Quality control by MALDI-TOF Mass Spectrometry was carried out on 100% of samples.
# as §4, with “epitope. The score of the test peptide is reported quantitatively as a percentage of the signal generated by the positive control peptide, and the peptide is indicated as having a putative pass or fail result. Assay performance is confirmed by including an intermediate control peptide that is known to bind with weaker affinity to the allele under investigation.” for “epitope.”
# human PBMCs = format: cell-based; details: With Cytofix/Cytoperm and trypsination, BC20
# DC-cells = experiment: Cell penetration assay: staining for biotinylated peptides, dendritic cells gated as CD11c+; format: cell-based, human; details: low concentration of peptides (208 uM)
# Protocol: A set of peptides were biotinylated on N-terminal, and different combinations of aminoacids, with respect to length and type, were added to the sequence box X^1, X^3 and X^4 in the peptides as illustrated by the diagram below. The peptides were tested on cells grown from one individual blood donor.
# 96-well U-bottom polystyrene plates (NUNC, cat no: 163320) were used for staining of human PBMCs. Briefly, 8 ul of N- or C-terminally biotinylated peptides according to table 1 or table 2 (i.e. 5 mM, 2.5 mM & 1.25 mM tested for each peptide) were incubated at 37° C. for 2 h with 40 ul of PBMC (12.5×10^6 cells/ml) from blood donors. Cells were then washed 3× with 150 ul of Cellwash (BD, cat no: 349524), followed by resuspension of each cell pellet with 100 ul of Trypsin-EDTA (Sigma, cat no: T4424), then incubated at 37° C. for 5 min. Trypsinated cells were then washed 3× with 150 ul of Cellwash (BD, cat no: 349524), followed by resuspension with BD Cytofix/Cytoperm™ plus (BD, cat no: 554715), then incubated at 4° C. for 20 min according to manufacturer. Cells were then washed 2× with 150 ul PermWash (BD, cat no: 554715). Cells were then stained with Streptavidin-APC (BD, cat no: 554067) & Anti-hCD11c (eBioscience, cat no: 12-0116) according to manufacturer at 4° C. for 30 min aiming to visualize biotinylated peptides & dendritic cells, respectively. Cells were then washed 3× with 150 ul PermWash, followed by resuspension in staining buffer (BD, cat no: 554656) before flow cytometry. Dendritic cells were gated as CD11c+ events outside lymphocyte region (i.e. higher FSC & SSC signals than lymphocytes). 200 000 total cells were acquired on a FACSCanto II flow cytometer with HTS loader, and histograms for both total cells & dendritic cells with respect to peptide-fluorescence (i.e. GeoMean) were prepared.
# As shown in table 4 the peptides according to the invention had the ability to allocate through the cell membrane.
Substance,Geomean value (peptide-fluorescence) (human PBMCs; concentration 104 μM),Geomean value (peptide-fluorescence) (human PBMCs; concentration 208 μM),Geomean value (peptide-fluorescence) (human PBMCs; concentration 417 μM),Geomean value (peptide-fluorescence) (human PBMCs; concentration 833 μM),Results on DC-cells (geomean peptide-fluorescence) (DC-cells; BC 16),Results on DC-cells (geomean peptide-fluorescence) (DC-cells; BC43),also measured
ADLMGYIPL,–,–,–,–,–,–,"REVEAL binding score, HLA-type A1 (HLA-A1): 31.05%; REVEAL binding score, HLA-type A24 (HLA-A24): 0.61%; REVEAL binding score, HLA-type A29 (HLA-A29): 14.51%; REVEAL binding score, HLA-type B8 (HLA-B8): 11.40%; REVEAL binding score, HLA-type B14 (HLA-B14): 0.13%; REVEAL binding score, HLA-type B15 (HLA-B15): 8.30%; REVEAL binding score, HLA-type A11 (HLA-A11): 3.35%; REVEAL binding score, HLA-type A2 (HLA-A2): 8.06%; REVEAL binding score, HLA-type A3 (HLA-A3): 1.93%; REVEAL binding score, HLA-type B27 (HLA-B27): 1.01%; REVEAL binding score, HLA-type B7 (HLA-B7): 0.73%; REVEAL binding score, HLA-type B35 (HLA-B35): 2.08%; REVEAL binding score, HLA-type B40 (HLA-B40): 26.33%"
AEL[Nle]GYIPL,–,–,–,–,–,–,"REVEAL binding score, HLA-type A1 (HLA-A1): 16.63%; REVEAL binding score, HLA-type A24 (HLA-A24): 0.37%; REVEAL binding score, HLA-type A29 (HLA-A29): 20.78%; REVEAL binding score, HLA-type B8 (HLA-B8): 14.74%; REVEAL binding score, HLA-type B14 (HLA-B14): 0.12%; REVEAL binding score, HLA-type B15 (HLA-B15): 10.20%; REVEAL binding score, HLA-type A11 (HLA-A11): 3.61%; REVEAL binding score, HLA-type A2 (HLA-A2): 7.49%; REVEAL binding score, HLA-type A3 (HLA-A3): 3.05%; REVEAL binding score, HLA-type B27 (HLA-B27): 0.77%; REVEAL binding score, HLA-type B7 (HLA-B7): 1.11%; REVEAL binding score, HLA-type B35 (HLA-B35): 1.91%; REVEAL binding score, HLA-type B40 (HLA-B40): 72.73%"
GPRLGVRAT,–,–,–,–,–,–,"REVEAL binding score, HLA-type A1 (HLA-A1): 13.85%; REVEAL binding score, HLA-type A24 (HLA-A24): 0.05%; REVEAL binding score, HLA-type A29 (HLA-A29): 12.66%; REVEAL binding score, HLA-type B8 (HLA-B8): 13.18%; REVEAL binding score, HLA-type B14 (HLA-B14): 0.94%; REVEAL binding score, HLA-type B15 (HLA-B15): 10.01%; REVEAL binding score, HLA-type B35 (HLA-B35): 1.83%; REVEAL binding score, HLA-type B40 (HLA-B40): 19.95%"
RGYIPLVGAPLGRRRVARALAHGVRV [SP10],3709,7684,18607,43389,8627,9216,–
RGYIPLVGAPLGRRRVARALAHGVRVR [SP4],2946,7540,28008,41491,10751,17372,–
RGYIPLVGAPLGRRVARALAHGVRV [SP3],4308,10788,25905,40456,9480,10573,–
RLGVRATRK,–,–,–,–,–,–,"REVEAL binding score, HLA-type A1 (HLA-A1): 20.39%; REVEAL binding score, HLA-type A24 (HLA-A24): 0.28%; REVEAL binding score, HLA-type A29 (HLA-A29): 12.83%; REVEAL binding score, HLA-type B8 (HLA-B8): 10.21%; REVEAL binding score, HLA-type B14 (HLA-B14): 0.07%; REVEAL binding score, HLA-type B15 (HLA-B15): 11.74%; REVEAL binding score, HLA-type B35 (HLA-B35): 2.83%; REVEAL binding score, HLA-type B40 (HLA-B40): 23.05%"
RRGPVVHLTLRGRRGQAGDDFS [SP20],445,1268,2457,7319,19051,3383,–
RRGPVVHLTLRRRGQAGDDFS [SP18],1038,1971,1334,4869,5545,7751,–
RRGPVVHLTLRRRGQAGDDFS [SP19],1625,3466,7201,17018,6522,6536,–
RRGYIPLVGAPLGBGRVARALAHGVRV [SP2],1211,–,5486,3136,6677,6112,–
RRGYIPLVGAPLGLRRVARALAHGVRV [SP17],1500,12244,29967,30248,67428,–,–
RRGYIPLVGAPLGRRRVARALAHGVRV [SP6],1850,6514,22195,32577,10233,14468,–
RRGYIPLVGAPLGRRVARALAHGVRV [SP5],6152,19065,46060,40534,21358,29146,–
RRRGYIPLVGAPLGBRVARALAHGVRV [SP8],2917,9617,28606,31976,15379,17836,–
SFSIELLAL,–,–,–,–,–,–,"REVEAL binding score, HLA-type B40 (HLA-B40): 21.04%"
WGYIPLVGAPLGRRVARALAHGVRV [SP12],4316,8679,10869,11089,59274,31222,–
WWGYIPLVGAPLGRRVARALAHGVRV [SP13],–,332,394,568,28539,9129,–
